Assay results reported in ChEMBL document CHEMBL1201862, “PubChem BioAssay data set” (2004).
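In this assay, cells in 96-well plates receive the compound at five concentrations for 48 hours. Endpoints are linearly interpolated between the surrounding concentrations. Here, GI50 denotes the concentration required for 50% inhibition of growth.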 The source made the active and inactive calls. No stated cut-off is given here; in the data, active = GI50 up to about 1.1 µM and inactive = higher.

What was measured:
Assay in all cases: NCI-60 cell line screen, 48 h
A498 = test system: A498
ACHN = test system: ACHN
CAKI-1 = test system: CAKI-1
CCRF-CEM = test system: CCRF-CEM
COLO 205 = test system: COLO 205
HCC 2998 = test system: HCC 2998
HOP-62 = test system: HOP-62
HT-29 = test system: HT-29
IGROV-1 = test system: IGROV-1
MDA-MB-231 = test system: MDA-MB-231
Malme-3M = test system: Malme-3M
NCI-H522 = test system: NCI-H522
OVCAR-3 = test system: OVCAR-3
RPMI-8226 = test system: RPMI-8226
SN12C = test system: SN12C
SR = test system: SR
SW-620 = test system: SW-620
T47D = test system: T47D
UACC-62 = test system: UACC-62

Measured: GI50

C[C@H](C(O)CC(=O)C(C)(C)O)[C@H]1CC[C@@]2(C)[C@@H]3CC[C@H]4C(C)(C)[C@@H](OC5OC(COC6OC(CO)C(O)C(O)C6O)C(O)C(O)C5O)CC[C@]4(C)C3=CC[C@]12C (stereo partly specified)
inactive: A498 > 100 µM | ACHN > 100 µM | CAKI-1 > 100 µM | CCRF-CEM > 100 µM | COLO 205 > 100 µM | HCC 2998 > 100 µM | HOP-62 > 100 µM | HT-29 > 100 µM | IGROV-1 > 100 µM | MDA-MB-231 > 100 µM | Malme-3M > 100 µM | NCI-H522 > 100 µM | OVCAR-3 > 100 µM | RPMI-8226 > 100 µM | SN12C > 100 µM | SR > 100 µM | SW-620 > 100 µM | T47D > 100 µM | UACC-62 > 100 µM

OB(O)c1ccccc1C#Cc1ccccc1B(O)O
inactive: A498 3.04 µM | ACHN 20.7 µM | CAKI-1 3.09 µM | CCRF-CEM 20.1 µM | COLO 205 16.2 µM | HCC 2998 17.7 µM | HOP-62 23.9 µM | HT-29 42.7 µM | IGROV-1 3.14 µM | MDA-MB-231 20.8 µM | Malme-3M 17.1 µM | NCI-H522 14.6 µM | OVCAR-3 17.1 µM | RPMI-8226 20.6 µM | SN12C 23.6 µM | SR 19.5 µM | SW-620 20.1 µM | T47D 2.98 µM | UACC-62 14.5 µM

O=[N+]([O-])c1ccc(N2N=C(c3ccc4ccccc4c3O)CC2c2ccc(Cl)cc2)c([N+](=O)[O-])c1 (stereo unspecified)
inactive: A498 27.2 µM | ACHN 37.2 µM | CAKI-1 > 100 µM | CCRF-CEM 14.2 µM | COLO 205 29.6 µM | HCC 2998 46.5 µM | HOP-62 41.2 µM | HT-29 33 µM | IGROV-1 21.5 µM | MDA-MB-231 20.5 µM | Malme-3M 21.5 µM | NCI-H522 22.1 µM | OVCAR-3 24.8 µM | RPMI-8226 12.8 µM | SN12C 33.2 µM | SR 18.2 µM | SW-620 29.9 µM | T47D 51.4 µM | UACC-62 > 100 µM

CCO[C@@]12CCC3CC4CC[C@@](OCC)(O1)C4C32 (stereo partly specified)
inactive: A498 > 100 µM | ACHN > 100 µM | CAKI-1 > 100 µM | CCRF-CEM > 100 µM | COLO 205 > 100 µM | HCC 2998 > 100 µM | HOP-62 > 100 µM | HT-29 > 100 µM | IGROV-1 > 100 µM | MDA-MB-231 > 100 µM | Malme-3M > 100 µM | NCI-H522 > 100 µM | OVCAR-3 > 100 µM | RPMI-8226 > 100 µM | SN12C > 100 µM | SR > 100 µM | SW-620 > 100 µM | T47D > 100 µM | UACC-62 > 100 µM
